In patent publication US20030134859A1 (SANKYO COMPANY, LIMITED, priority 2000, published 2003) one finds inhibition in vivo and activity data, which are given here for eleven compounds.

One assay concerns Balb/c mice. Briefly: Prevention of concanavalin A liver injury. Format: in vivo, mouse. The note with it: Mus musculus, po, 24 h, 10 mg/mL suspension at 10 mL/kg, 30 min prior to Con A, plasma 24 hr after Con A. The protocol:
Five (5) Balb/c mice (female, 6-8 weeks old) per group were used. Liver injury was elicited in the mouse by injection of concanavalin A (Con A) dissolved in saline (2.0 mg/mL) into the tail vein at a volume of 10 mL/kg of the solution (Hepatology, 21, 190-198 (1995)).
The test compounds were suspended in distilled water containing 0.5% CMC, at a concentration of 10 mg/mL. This suspended solution was orally administered to the mouse at a volume of 10 mL/kg, 30 min prior to injection of Con A (group A).
Apart from this group, distilled water containing 0.5% CMC powder, instead of the test compound, was orally administered in the second group of mice (group B). In the 3rd group, nothing was given to the mice (group C).
Twenty four (24) hr after the injection of Con A, blood was collected from the abdominal aorta of the mice and the plasma was isolated while mixing with heparin. Activities of glutamic acid oxaloacetic acid transaminase (AST) and glutamic acid pyruvic acid transaminase (ALT) in the plasma were determined according to the methods described by Nagakawa et al. (J. Pharmacol. Exp. Ther., 264, 496-500 (1993)). From the values obtained inhibitory rates of the test compound against AST and ALT levels which had been increased by injection of Con A, were obtained based on the following equation.
Inhibitory Rate(%)={1−[(A−C)/(B−C)]}×100
A: The average level of AST or ALT in the group A
B: The average level of AST or ALT in the group B
C: The average level of AST or ALT in the group C

The subject of a further assay is leptin production. Briefly: Enhancing activity for leptin production in adipocytes (ELISA). Format: cell-based, rat. The note with it: Rattus norvegicus, Adipocyte, 24 h, leptin concentration as % of control group, read-out: Facilitating activity to produce leptin. The essentials:
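Leptin release, quantified by rat leptin ELISA, expressed as percent of 0.1% DMSO control after 24 h at 37 °C. Cells were floating adipocytes isolated by collagenase digestion of epididymal fat from male 6-week Wistar Imamichi rats; compound tested at 1 nM–1 µM final.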

Setting [1] is: read-out: Preventing rate against liver injury, ALT (%).
The mark [2] stands for this setting: read-out: Preventing rate against liver injury, AST (%).

Where two headings read alike, the source gives them in different places.

For `O=C(Nc1nc(-c2cccnc2)cs1)c1cc([N+](=O)[O-])ccc1Cl` [Example 37, N-[4-(3-Pyridyl)thiazol-2-yl)-(2-chloro-5-nitrophenyl)carboxamide], the inhibition in vivo at 10000 µg/mL, 100 mg/kg with Balb/c mice (setting [1]) was determined as 20.7%.
Regarding `O=C(Nc1ccc(-c2ccccc2)cc1)c1cc([N+](=O)[O-])ccc1Cl` [Example 2, N-(4-Phenylphenyl)-(2-chloro-5-nitrophenyl)carboxamide], in the assay on leptin production, the activity at 1 µM amounted to 113%. In addition, the results for the inhibition in vivo at 10000 µg/mL, 100 mg/kg with Balb/c mice (setting [1]) and with Balb/c mice (setting [2]) were 64.5% and 4.1%, respectively.
For the compound `O=C(Nc1ccc(-c2ccccn2)cc1)c1cc([N+](=O)[O-])ccc1Cl` [Example 8, N-[4-(2-Pyridyl)phenyl]-(2-chloro-5-nitrophenyl)carboxamide], the inhibition in vivo at 10000 µg/mL, 100 mg/kg turned out to be 57% with Balb/c mice (setting [1]) and 56% in the assay with Balb/c mice (setting [2]).
In the same order, the values of `CCCCCc1ccc(NC(=O)c2cc([N+](=O)[O-])ccc2Cl)cc1` [Example 16, N-(4-Pentylphenyl)-(2-chloro-5-nitrophenyl)carboxamide] are 44.4% and 21.4%.
Taken in the same sequence, the figures for `N=C(N)NS(=O)(=O)c1ccc(NC(=O)c2cc([N+](=O)[O-])ccc2Cl)cc1` [Example 106, N-[4-(Amidinoaminosulfonyl)phenyl]-(2-chloro-5-nitrophenyl)carboxamide] were 114% and 106%.
`O=C(Nc1ccc(S(=O)(=O)Nc2cccnc2)cc1)c1cc([N+](=O)[O-])ccc1Cl` [Example 178]: the activity at 1 µM in the assay with leptin production came to 117%. Further, the results for the inhibition in vivo at 10000 µg/mL, 100 mg/kg in the assay on Balb/c mice (setting [1]) and with Balb/c mice (setting [2]) were 50.5% and 64.5%, respectively.
Consider `COc1cnc(NS(=O)(=O)c2ccc(NC(=O)c3cc([N+](=O)[O-])ccc3Cl)cc2)nc1` [Example 105, N-[4-[(5-Methoxypyrimidin-2-yl)aminosulfonyl]phenyl]-(2-chloro-5-nitrophenyl)carboxamide], for which the inhibition in vivo at 10000 µg/mL, 100 mg/kg in the assay on Balb/c mice (setting [1]) came to 22.4%; with Balb/c mice (setting [2]), 27.5%.
As to `N#Cc1ccc(NC(=O)c2cc([N+](=O)[O-])ccc2Cl)cc1` [Example 20, N-(4-Cyanophenyl)-(2-chloro-5-nitrophenyl)carboxamide], the activity at 1 µM with leptin production was 126%. Further, the activity at 0.001 µM with leptin production (1 nm) came out at 130%. Besides, in the assay with leptin production (10 nm), the activity at 0.01 µM came to 135%. Further, the activity at 0.1 µM in the assay on leptin production (100 nm) stood at 155%. Moreover, the values for the inhibition in vivo at 10000 µg/mL, 100 mg/kg in the assay with Balb/c mice (setting [1]) and with Balb/c mice (setting [2]) were 67.2% and 77%, respectively.
For the compound `O=C(Nc1nc(-c2ccccc2)cs1)c1cc([N+](=O)[O-])ccc1Cl` [Example 35, N-(4-Phenylthiazol-2-yl)-(2-chloro-5-nitrophenyl)carboxamide], in the assay with Balb/c mice (setting [1]), the inhibition in vivo at 10000 µg/mL, 100 mg/kg was 12.4%.
Consider `Cc1ccc2nc(-c3ccc(NC(=O)c4cc([N+](=O)[O-])ccc4Cl)cc3)sc2c1` [Example 10, N-[4-(6-Methylbenzothiazol-2-yl)phenyl]-(2-chloro-5-nitrophenyl)carboxamide], for which, in the assay with leptin production, the activity at 1 µM came to 118%. For the same compound, the inhibition in vivo at 10000 µg/mL, 100 mg/kg with Balb/c mice (setting [1]) is 55.9%; in the assay with Balb/c mice (setting [2]), 49%.
Turning to `Cc1ccc(NC(=O)c2cc([N+](=O)[O-])ccc2Cl)cc1` [Example 1, N-(4-Methylphenyl)-(2-chloro-5-nitrophenyl)carboxamide], the values for the inhibition in vivo at 10000 µg/mL, 100 mg/kg in the assay on Balb/c mice (setting [1]) and in the assay with Balb/c mice (setting [2]) were 40.1% and 19%, respectively.
